In PubChem BioAssay (NCI):
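96-well plates; 48 h exposure; 5 concentrations. Endpoints by linear interpolation between flanking doses. Not reached: highest tested concentration assigned. GI50 is the concentration that inhibits growth by half. TGI denotes the concentration required for complete inhibition of growth.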

What was measured:
Assay in all cases: NCI anticancer screen, dose series, 48 h; in the data active means GI50 below about 0.43 µM; inactive means the rest
786-0 renal = test system: 786-0 renal
A498 renal = test system: A498 renal
A549 NSCLC = test system: A549 NSCLC
ACHN renal = test system: ACHN renal
BT-549 breast = test system: BT-549 breast
CAKI-1 renal = test system: CAKI-1 renal
CCRF-CEM leukemia = test system: CCRF-CEM leukemia
COLO 205 colon = test system: COLO 205 colon
DU-145 prostate = test system: DU-145 prostate
HCC-2998 colon = test system: HCC-2998 colon
HCT-116 colon = test system: HCT-116 colon
HCT-15 colon = test system: HCT-15 colon
HL-60(TB) leukemia = test system: HL-60(TB) leukemia
HOP-62 NSCLC = test system: HOP-62 NSCLC
HOP-92 NSCLC = test system: HOP-92 NSCLC
HS 578T breast = test system: HS 578T breast
HT29 colon = test system: HT29 colon
IGROV1 ovarian = test system: IGROV1 ovarian
K-562 leukemia = test system: K-562 leukemia
KM12 colon = test system: KM12 colon
LOX IMVI melanoma = test system: LOX IMVI melanoma
M14 melanoma = test system: M14 melanoma
MALME-3M melanoma = test system: MALME-3M melanoma
MCF7 breast = test system: MCF7 breast
MDA-MB-231 breast = test system: MDA-MB-231 breast
MDA-MB-435 = test system: MDA-MB-435
MOLT-4 leukemia = test system: MOLT-4 leukemia
NCI-H226 lung = test system: NCI-H226 lung
NCI-H23 lung = test system: NCI-H23 lung
NCI-H460 lung = test system: NCI-H460 lung
NCI-H522 lung = test system: NCI-H522 lung
NCI/ADR-RES ovarian = test system: NCI/ADR-RES ovarian
OVCAR-3 ovarian = test system: OVCAR-3 ovarian
OVCAR-4 ovarian = test system: OVCAR-4 ovarian
OVCAR-5 ovarian = test system: OVCAR-5 ovarian
OVCAR-8 ovarian = test system: OVCAR-8 ovarian
PC-3 prostate = test system: PC-3 prostate
RPMI-8226 leukemia = test system: RPMI-8226 leukemia
RXF 393 renal = test system: RXF 393 renal
SF-268 CNS = test system: SF-268 CNS
SF-295 CNS = test system: SF-295 CNS
SF-539 CNS = test system: SF-539 CNS
SK-MEL-2 melanoma = test system: SK-MEL-2 melanoma
SK-MEL-28 melanoma = test system: SK-MEL-28 melanoma
SK-OV-3 ovarian = test system: SK-OV-3 ovarian
SN12C renal = test system: SN12C renal
SNB-19 CNS = test system: SNB-19 CNS
SNB-75 CNS = test system: SNB-75 CNS
SR leukemia = test system: SR leukemia
SW-620 colon = test system: SW-620 colon
TK-10 renal = test system: TK-10 renal
U251 CNS = test system: U251 CNS
UACC-257 melanoma = test system: UACC-257 melanoma
UACC-62 melanoma = test system: UACC-62 melanoma
UO-31 renal = test system: UO-31 renal

Cc1cc(C)c(C#N)c(SCC(=O)c2sc3c(C#N)c(C)cc(C)[n+]3c2[O-])n1
1080 nM: TGI (OVCAR-3 ovarian)
6250 nM: TGI (COLO 205 colon)
892 nM: TGI (HL-60(TB) leukemia)
active: GI50 (A498 renal) 135 nM | GI50 (CCRF-CEM leukemia) 333 nM | GI50 (COLO 205 colon) 383 nM | GI50 (HCT-116 colon) 367 nM | GI50 (HCT-15 colon) 242 nM | GI50 (HL-60(TB) leukemia) 277 nM | GI50 (HS 578T breast) 335 nM | GI50 (HT29 colon) 329 nM | GI50 (K-562 leukemia) 376 nM | GI50 (KM12 colon) 401 nM | GI50 (M14 melanoma) 309 nM | GI50 (MCF7 breast) 166 nM | GI50 (MDA-MB-435) 97.9 nM | GI50 (NCI-H460 lung) 362 nM | GI50 (NCI-H522 lung) 244 nM | GI50 (NCI/ADR-RES ovarian) 366 nM | GI50 (OVCAR-3 ovarian) 340 nM | GI50 (RXF 393 renal) 238 nM | GI50 (SF-295 CNS) 307 nM | GI50 (SF-539 CNS) 88.1 nM | GI50 (SNB-75 CNS) 336 nM | GI50 (SR leukemia) 228 nM | GI50 (SW-620 colon) 340 nM | GI50 (U251 CNS) 374 nM
777 nM: TGI (RXF 393 renal)
> 100000 nM: TGI (A549 NSCLC) | TGI (ACHN renal) | TGI (BT-549 breast) | TGI (CAKI-1 renal) | TGI (CCRF-CEM leukemia) | TGI (HCC-2998 colon) | TGI (HCT-116 colon) | TGI (HCT-15 colon) | TGI (HOP-62 NSCLC) | TGI (HS 578T breast) | TGI (IGROV1 ovarian) | TGI (K-562 leukemia) | TGI (KM12 colon) | TGI (LOX IMVI melanoma) | TGI (MALME-3M melanoma) | TGI (MCF7 breast) | TGI (MDA-MB-231 breast) | TGI (MOLT-4 leukemia) | TGI (NCI-H226 lung) | TGI (NCI-H23 lung) | TGI (NCI-H460 lung) | TGI (OVCAR-4 ovarian) | TGI (OVCAR-5 ovarian) | TGI (OVCAR-8 ovarian) | TGI (PC-3 prostate) | TGI (RPMI-8226 leukemia) | TGI (SF-268 CNS) | TGI (SK-MEL-28 melanoma) | TGI (SK-OV-3 ovarian) | TGI (SN12C renal) | TGI (SNB-19 CNS) | TGI (SR leukemia) | TGI (SW-620 colon) | TGI (TK-10 renal) | TGI (UACC-257 melanoma) | TGI (UACC-62 melanoma) | TGI (UO-31 renal)
> 50700 nM: TGI (HOP-92 NSCLC)
538 nM: TGI (MDA-MB-435)
> 27200 nM: TGI (SNB-75 CNS)
> 29300 nM: TGI (SF-295 CNS)
98800 nM: TGI (U251 CNS)
2070 nM: TGI (A498 renal)
17800 nM: TGI (NCI/ADR-RES ovarian)
1760 nM: TGI (HT29 colon)
501 nM: TGI (SF-539 CNS)
inactive: GI50 (786-0 renal) 692 nM | GI50 (A549 NSCLC) 474 nM | GI50 (ACHN renal) 725 nM | GI50 (BT-549 breast) 859 nM | GI50 (CAKI-1 renal) 617 nM | GI50 (DU-145 prostate) 472 nM | GI50 (HCC-2998 colon) 867 nM | GI50 (HOP-62 NSCLC) 4170 nM | GI50 (HOP-92 NSCLC) 514 nM | GI50 (IGROV1 ovarian) 1100 nM | GI50 (LOX IMVI melanoma) 750 nM | GI50 (MALME-3M melanoma) 4240 nM | GI50 (MDA-MB-231 breast) 890 nM | GI50 (MOLT-4 leukemia) 596 nM | GI50 (NCI-H226 lung) 1330 nM | GI50 (NCI-H23 lung) 697 nM | GI50 (OVCAR-4 ovarian) 2240 nM | GI50 (OVCAR-5 ovarian) 607 nM | GI50 (OVCAR-8 ovarian) 513 nM | GI50 (PC-3 prostate) 436 nM | GI50 (RPMI-8226 leukemia) 491 nM | GI50 (SF-268 CNS) 1130 nM | GI50 (SK-MEL-2 melanoma) 624 nM | GI50 (SK-MEL-28 melanoma) 1410 nM | GI50 (SK-OV-3 ovarian) 678 nM | GI50 (SN12C renal) 534 nM | GI50 (SNB-19 CNS) 504 nM | GI50 (TK-10 renal) 1500 nM | GI50 (UACC-257 melanoma) 531 nM | GI50 (UACC-62 melanoma) 559 nM | GI50 (UO-31 renal) 1140 nM
56200 nM: TGI (SK-MEL-2 melanoma)
> 52600 nM: TGI (786-0 renal)
692 nM: TGI (NCI-H522 lung)
